The results in this text go back to patent US9120804B2, “8-substituted 2-amino-[1,2,4] triazolo [1, 5-A] pyrazines as Syk tryrosine kinase inhibitors and GCN2 serin kinase inhibitors” (Merck Patent GmbH, priority 2012, dated 2015).

pIC50: −log10 of the molar value. Some results are limits rather than exact numbers.

This assay has as its target T1, SYK (Homo sapiens, UniProt P43405).
T1 construct: 2.5 nM SYK, 400 nM Biotin-Aha-Aha-KEDPDYEWPSAKK
In words: SYK flash plate assay (enzyme assay). The assay is classed as biochemical. How it is done:
The kinase assay is performed either as 384-well Flashplate assay (for e.g. Topcount measurement) or as 384-well Image-Flashplate assay (for LEADseeker measurement).
2.5 nM SYK, 400 nM Biotin-Aha-Aha-KEDPDYEWPSAKK
and 10 μM ATP (spiked with 0.3 μCi 33P-ATP/well) are incubated in a total volume of 50 μl (60 mM Hepes, 10 mM MgCl2, 1.2 mM Dithiothreitol, 0.02% Brij35, 0.1% BSA, pH 7.5) with or without test compound for 1 hours at 30° C. The reaction is stopped with 25 μl 200 mM EDTA. After 30 Min at 30° C. the liquid is removed and each well washed thrice with 100 μl 0.9% sodium chloride solution. Non-specific reaction is determined in presence of […] Staurosporine. Radioactivity is measured with Topcount (when using Flashplates) or with LEADseeker (when using Image-Flashplates) respectively. Results (e.g. IC50-values) are calculated with program tools provided by the IT-department (e.g. Symyx Assay Explorer, Genedata Screener). In Vivo Assays CIA
One may read the pIC50 as the negative decadic logarithm of the IC50, by convention in mol/L. Read a low pIC50 as a high IC50. Compound `CC1(C)C(=O)Nc2cc(Nc3nc4c(N5C[C@H](O)C[C@@H]5c5ccccc5)nccn4n3)ccc21` (racemic) [C143, 6-[8-(4-hydroxy-2-phenyl-pyrrolidin-1-yl)-[1,2,4]triazolo[1,5-a]pyrazin-2-ylamino]-3,3-dimethyl-1,3-dihydro-indol-2-one] gave a pIC50 of 6.52 to 7.00.
For `CC1(C)C(=O)Nc2cc(Nc3nc4c(N5C[C@@H](CO)C[C@H]5c5ccccc5)nccn4n3)ccc21` (single isomer, unassigned) [E95, 6-[8-((cis1)-4-hydroxymethyl-2-phenyl-pyrrolidin-1-yl)-[1,2,4]triazolo[1,5-a]pyrazin-2-ylamino]-3,3-dimethyl-1,3-dihydro-indol-2-one] the value was greater than 7.00; for `CC1(C)C(=O)Nc2cc(Nc3nc4c(N5C[C@@H](CO)C[C@@H]5c5ccccc5)nccn4n3)ccc21` (single isomer, unassigned) [E97, 6-[8-((trans1)-4-hydroxymethyl-2-phenyl-pyrrolidin-1-yl)-[1,2,4]triazolo[1,5-a]pyrazin-2-ylamino]-3,3-dimethyl-1,3-dihydro-indol-2-one], 5.52 to 6.52; for `CC1(C)C(=O)Nc2cc(Nc3nc4c(N5C[C@H](CO)C[C@H]5c5ccccc5)nccn4n3)ccc21` (single isomer, unassigned) [E98, 6-[8-((trans2)-4-hydroxymethyl-2-phenyl-pyrrolidin-1-yl)-[1,2,4]triazolo[1,5-a]pyrazin-2-ylamino]-3,3-dimethyl-1,3-dihydro-indol-2-one], 6.52 to 7.00.
`COc1ccc(Nc2nc3c(-c4ccccc4-c4ccccc4)nccn3n2)cc1` [C1, (8-Biphenyl-2-yl-[1,2,4]triazolo[1,5-a]pyrazin-2-yl)-(4-methoxy-phenyl)-amine] showed a pIC50 of 4.30 to 5.52.
The same measure for `COc1ccc(OC)c(Nc2nc3c(-c4ccccc4-c4ccccc4)nccn3n2)c1` [C3, (8-Biphenyl-2-yl-[1,2,4]triazolo[1,5-a]pyrazin-2-yl)-(2,5-dimethoxy-phenyl)-amine]: 5.52 to 6.52; for `COc1ccc(Nc2nc3c(-c4ccccc4-c4ccccc4)nccn3n2)cc1OC` [C5, (8-Biphenyl-2-yl-[1,2,4]triazolo[1,5-a]pyrazin-2-yl)-(3,4-dimethoxy-phenyl)-amine]: 6.52 to 7.00; for `COc1cccc(Nc2nc3c(-c4ccccc4-c4ccccc4)nccn3n2)c1` [C7, (8-Biphenyl-2-yl-[1,2,4]triazolo[1,5-a]pyrazin-2-yl)-(3-methoxy-phenyl)-amine]: 5.52 to 6.52.
`c1ccc(-c2ccccc2-c2nccn3nc(Nc4ccc5cn[nH]c5c4)nc23)cc1` [C11, (8-Biphenyl-2-yl-[1,2,4]triazolo[1,5-a]pyrazin-2-yl)-(1H-indazol-6-yl)-amine] had a pIC50 of 5.52 to 6.52.
The compound `NS(=O)(=O)c1cccc(Nc2nc3c(-c4ccccc4-c4ccccc4)nccn3n2)c1` [C13, 3-(8-Biphenyl-2-yl-[1,2,4]triazolo[1,5-a]pyrazin-2-ylamino)-benzenesulfonamide] showed a pIC50 of 4.30 to 5.52.
The same measure for `NS(=O)(=O)c1ccc(Nc2nc3c(-c4ccccc4-c4ccccc4)nccn3n2)cc1` [C15, 4-(8-Biphenyl-2-yl-[1,2,4]triazolo[1,5-a]pyrazin-2-ylamino)-benzenesulfonamide]: 4.30 to 5.52; for `c1ccc(-c2ccccc2-c2nccn3nc(Nc4cccc(N5CCOCC5)c4)nc23)cc1` [C17, (8-Biphenyl-2-yl-[1,2,4]triazolo[1,5-a]pyrazin-2-yl)-(3-morpholin-4-yl-phenyl)-amine]: 5.52 to 6.52; for `Cn1ncc2ccc(Nc3nc4c(-c5ccccc5-c5ccccc5)nccn4n3)cc21` [C20, (8-Biphenyl-2-yl-[1,2,4]triazolo[1,5-a]pyrazin-2-yl)-(1-methyl-1H-indazol-6-yl)-amine]: 5.52 to 6.52.
`COc1ccccc1Nc1nc2c(-c3ccccc3-c3ccccc3)nccn2n1` [C24, (8-Biphenyl-2-yl-[1,2,4]triazolo[1,5-a]pyrazin-2-yl)-(2-methoxy-phenyl)-amine] showed a pIC50 of 4.30 to 5.52.
Take `C[S+]([O-])c1ccc(Nc2nc3c(-c4ccccc4-c4ccccc4)nccn3n2)cc1` (stereo not drawn) [C31, (8-Biphenyl-2-yl-[1,2,4]triazolo[1,5-a]pyrazin-2-yl)-(4-methanesulfinyl-phenyl)-amine]: the pIC50 was 4.30 to 5.52.
For `N#Cc1ccc(Nc2nc3c(-c4ccccc4-c4ccccc4)nccn3n2)cc1O` [C35, 4-(8-Biphenyl-2-yl-[1,2,4]triazolo[1,5-a]pyrazin-2-ylamino)-2-hydroxybenzonitrile] the value was 4.30 to 5.52; for `CS(=O)(=O)Nc1ccc(-c2nccn3nc(Nc4ccc(N5CCOCC5)cc4)nc23)cc1` [C42, N-{4-[2-(4-morpholin-4-yl-phenylamino)-[1,2,4]triazolo[1,5-a]pyrazin-8-yl]-phenyl}-methanesulfonamide], 5.52 to 6.52; for `COc1cc(Nc2nc3c(N4CCN(C)CC4)nccn3n2)cc(OC)c1` [C46, (3,5-dimethoxy-phenyl)-[8-(4-methyl-piperazin-1-yl)-[1,2,4]triazolo[1,5-a]pyrazin-2-yl]-amine], 5.52 to 6.52.
The same measure for `COc1cc(Nc2nc3c(N4CCC(NS(C)(=O)=O)CC4)nccn3n2)cc(OC)c1` [C53, N-{1-[2-(3,5-dimethoxy-phenylamino)-[1,2,4]triazolo[1,5-a]pyrazin-8-yl]-piperidin-4-yl}-methanesulfonamide]: 5.52 to 6.52; for `COc1cc(Nc2nc3c(N4CCNC(c5ccccc5)C4)nccn3n2)cc(OC)c1` (stereo not drawn) [C54, (3,5-dimethoxy-phenyl)-[8-(3-phenyl-piperazin-1-yl)-[1,2,4]triazolo[1,5-a]pyrazin-2-yl]-amine]: 4.30 to 5.52.
Regarding `Cn1cc(-c2nccn3nc(Nc4ccc(C(C)(C)C)cc4)nc23)cn1` [C62, (4-tert-butyl-phenyl)-[8-(1-methyl-1H-pyrazol-4-yl)-[1,2,4]triazolo[1,5-a]pyrazin-2-yl]-amine], the pIC50 is 6.52 to 7.00.
The same measure for `Cc1nn(C)c(C)c1-c1nccn2nc(Nc3ccc4c(c3)NC(=O)C4(C)C)nc12` [C68, 3,3-dimethyl-6-[8-(1,3,5-trimethyl-1H-pyrazol-4-yl)-[1,2,4]triazolo[1,5-a]pyrazin-2-ylamino]-1,3-dihydro-indol-2-one]: 5.52 to 6.52; for `CC1(C)C(=O)Nc2cc(Nc3nc4c(N[C@H]5CC[C@@H](O)CC5)nccn4n3)ccc21` [C75, cis-6-[8-(4-hydroxy-cyclohexylamino)-[1,2,4]triazolo[1,5-a]pyrazin-2-ylamino]-3,3-dimethyl-1,3-dihydro-indol-2-one]: greater than 7.00.
The same measure for `CC1(C)C(=O)Nc2cc(Nc3nc4c(N[C@H]5CC[C@H](O)CC5)nccn4n3)ccc21` [C76, trans-6-[8-(4-hydroxy-cyclohexylamino)-[1,2,4]triazolo[1,5-a]pyrazin-2-ylamino]-3,3-dimethyl-1,3-dihydro-indol-2-one]: 5.52 to 6.52; for `CC1(C)C(=O)Nc2cc(Nc3nc4c(NC5CCCNC5)nccn4n3)ccc21` (stereo not drawn) [C77, 3,3-dimethyl-6-[8-(piperidin-3-ylamino)-[1,2,4]triazolo[1,5-a]pyrazin-2-ylamino]-1,3-dihydro-indol-2-one]: greater than 7.00.
For `CC1(C)C(=O)Nc2cc(Nc3nc4c(N5CC(O)CC5c5ccccc5)nccn4n3)ccc21` (stereo not drawn) [C79, 6-[8-(4-hydroxy-2-phenyl-pyrrolidin-1-yl)-[1,2,4]triazolo[1,5-a]pyrazin-2-ylamino]-3,3-dimethyl-1,3-dihydro-indol-2-one] the value was 5.52 to 6.52; for `CC1(C)C(=O)Nc2cc(Nc3nc4c(N[C@@H]5CCCNC5)nccn4n3)ccc21` [C87, 3,3-dimethyl-6-[8-((R)-piperidin-3-ylamino)-[1,2,4]triazolo[1,5-a]pyrazin-2-ylamino]-1,3-dihydro-indol-2-one], 6.52 to 7.00; for `CC1(C)C(=O)Nc2cc(Nc3nc4c(N5C[C@@H]6C[C@H]5CN6)nccn4n3)ccc21` [C89, 6-[(1S,4S)-8-(2,5-diaza-bicyclo[2.2.1]hept-2-yl)-[1,2,4]triazolo[1,5-a]pyrazin-2-ylamino]-3,3-dimethyl-1,3-dihydro-indol-2-one], 5.52 to 6.52.
Turning to `CC1(C)C(=O)Nc2cc(Nc3nc4c(-c5cccc6[nH]ncc56)nccn4n3)ccc21` [C90, 6-[8-(1H-indazol-4-yl)-[1,2,4]triazolo[1,5-a]pyrazin-2-ylamino]-3,3-dimethyl-1,3-dihydro-indol-2-one], the pIC50 is greater than 7.00.
For `CC1(C)C(=O)Nc2cc(Nc3nc4c(N5CCCC6(COC6)C5)nccn4n3)ccc21` [C92, 3,3-dimethyl-6-[8-(2-oxa-6-aza-spiro[3.5]non-6-yl)-[1,2,4]triazolo[1,5-a]pyrazin-2-ylamino]-1,3-dihydro-indol-2-one], the negative-log IC50 (pIC50) is greater than 7.00.
The same measure for `CC1(C)C(=O)Nc2cc(Nc3nc4c(N(CCO)C5CCNCC5)nccn4n3)ccc21` [C93, 6-{8-[(2-hydroxy-ethyl)-piperidin-4-yl-amino]-[1,2,4]triazolo[1,5-a]pyrazin-2-ylamino}-3,3-dimethyl-1,3-dihydro-indol-2-one]: 5.52 to 6.52; for `CC1(C)C(=O)Nc2cc(Nc3nc4c(N5C6CCC5COC6)nccn4n3)ccc21` [C96, 3,3-dimethyl-6-[8-(3-oxa-8-aza-bicyclo[3.2.1 l]oct-8-yl)-[1,2,4]triazolo[1,5-a]pyrazin-2-ylamino]-1,3-dihydro-indol-2-one]: 6.52 to 7.00; for `CC1(C)C(=O)Nc2cc(Nc3nc4c(N[C@H]5C[C@H](N)C5)nccn4n3)ccc21` [C97, 6-[8-(trans-3-amino-cyclobutylamino)-[1,2,4]triazolo[1,5-a]pyrazin-2-ylamino]-3,3-dimethyl-1,3-dihydro-indol-2-one]: 5.52 to 6.52.
